“Also recorded” adds a separate entry of the source. Structures can show the parent of a compound that is named as a salt. Where two headings read alike, the source gives them in different places.
Columns and labels:
[1] = Gravimetric Vapor Sorption (GVS); format: physicochemical
From the text: The sample is hygroscopic.

[2] = system: mouse model of severe incision; experiment: Mouse model of severe incision; format: in vivo; settings: 10 mg/kg IP daily for 15 days; Days 1, 3, 6, 8, 10, 13, 15 and 21 after incision; FIG. 13; mono-hydrochloride
From the text: Two incisional pain models were used to assess Compound 1 effects on hyperalgesia. The first model is referred to as the Brennan model in which, under anesthesia, a 1 cm longitudinal incision to the skin and underlying fascia of a rat hindpaw is made. The second is a variation but is a more invasive procedure in which the skin and muscle are spread apart using forceps which creates a longer-lasting hypersensitivity.
In a mouse model of severe incision (tissue and muscle spread with forceps), animals were at baseline for mechanical thresholds prior to incision and then given a daily dose of Compound 1 (10 mg/kg IP) or vehicle for 15 days.

uninjured animals = experiment: Normal sensation in uninjured animals; format: in vivo
From the text: In various embodiments, Compound 1 is efficacious in in vivo animal models of acute post-incisional hyperalgesia, both prophylactically and palliatively. […] In various embodiments, less than about 1%, 0.8%, 0.6%, 0.4%, 0.2%, 0.1%, 0.08%, 0.06%, 0.04%, 0.02%, or 0.01% of Compound 1 in blood plasma penetrates the BBB.

[3] = Metabolic stability in hepatocytes; format: in vitro ADME
From the text: Further metabolism work in additional species will be undertaken.

CYP1A2 = molecular target: T1, CYP1A2 (Homo sapiens, UniProt P05177); experiment: CYP inhibition in human liver microsomes; format: in vitro ADME
T1 construct: tissue BD Gentest; host or cells: human liver microsomes
T1 sequence (P05177 1-516): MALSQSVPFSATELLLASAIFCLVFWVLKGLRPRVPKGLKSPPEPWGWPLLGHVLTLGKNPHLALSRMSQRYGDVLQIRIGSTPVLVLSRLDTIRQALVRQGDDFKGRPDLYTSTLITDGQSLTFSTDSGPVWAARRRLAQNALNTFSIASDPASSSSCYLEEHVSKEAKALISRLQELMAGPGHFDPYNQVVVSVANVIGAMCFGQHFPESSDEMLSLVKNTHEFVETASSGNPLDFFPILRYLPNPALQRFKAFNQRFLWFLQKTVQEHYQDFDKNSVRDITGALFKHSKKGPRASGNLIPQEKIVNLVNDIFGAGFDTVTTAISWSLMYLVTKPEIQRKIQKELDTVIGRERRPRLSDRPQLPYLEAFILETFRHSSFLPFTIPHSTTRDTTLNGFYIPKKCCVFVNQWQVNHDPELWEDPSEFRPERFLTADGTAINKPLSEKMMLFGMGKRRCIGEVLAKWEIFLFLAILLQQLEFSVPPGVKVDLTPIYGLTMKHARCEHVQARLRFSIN
Procedure: (§1) At varying concentrations, Compound 1 was incubated with human liver microsomes (HLM) in the presence of known substrates (see below) of specific CYP isoforms, in order to measure inhibition induced by Compound 1. Microsomes were incubated with known inhibitors (positive controls) of each CYP isoform, in the presence of substrate, in order to measure the metabolic activity of the microsomes.

CYP2C19 = molecular target: T2, CYP2C19 (Homo sapiens, UniProt P33261); experiment: CYP inhibition in human liver microsomes; format: in vitro ADME
T2 construct: tissue BD Gentest; host or cells: human liver microsomes
Procedure: as §1

CYP2C9 = molecular target: T3, CYP2C9 (Homo sapiens, UniProt P11712); experiment: CYP inhibition in human liver microsomes; format: in vitro ADME
T3 construct: tissue BD Gentest; host or cells: human liver microsomes
Procedure: as §1

CYP2D6 = molecular target: T4, CYP2D6 (Homo sapiens, UniProt P10635); experiment: CYP inhibition in human liver microsomes; format: in vitro ADME
T4 construct: tissue BD Gentest; host or cells: human liver microsomes
Procedure: as §1

CYP3A4 = molecular target: T5, CYP3A4 (Homo sapiens, UniProt P08684); experiment: CYP inhibition in human liver microsomes; format: in vitro ADME
T5 construct: tissue BD Gentest; host or cells: human liver microsomes
Procedure: as §1

P-gp = molecular target: T6, P-gp (Homo sapiens, UniProt P08183); experiment: Inhibition of efflux (ABC) transporters; format: in vitro ADME
T6 construct: Caco-2 cells; endogenous in cells; host or cells: Caco-2 cells

in vivo = settings: rat, po, 100 mg/kg; for concentration at 1 h: 1 h post-dose; for concentration at 2 h: 2 h post-dose; for concentration at 0.5 h: 0.5 h post-dose
Procedure: In both assays, a deuterated (Compound 1-d4) internal standard was used.
The objective of this non-GLP study was to determine the pharmacokinetics of Compound 1 after a single oral (gavage) dose in rats, and to determine if Compound 1 undergoes epimerization in the rat. Compound 1 was administered to CD® IGS [Crl:CD(SD)] (Sprague Dawley) rats (5/sex/group) as a single oral gavage dose of 100 mg/kg in a vehicle of 0.5% aqueous HPMC. Rats were dosed at a dose volume of 10 mL/kg body weight.

[4] = female, Sprague Dawley, Compound 1 Concentration in rat plasma, 100 mg/kg single PO, individual animals
[5] = female, Sprague-Dawley (CD IGS, Crl:CD(SD))
[6] = male, Sprague Dawley, Compound 1 Concentration in rat plasma, 100 mg/kg single PO, individual animals
[7] = male, Sprague Dawley, Compound 1 Concentration in rat plasma, 100 mg/kg single PO, Average
[8] = male, Sprague-Dawley (CD IGS, Crl:CD(SD))

T2 sequence (P33261 whole entry): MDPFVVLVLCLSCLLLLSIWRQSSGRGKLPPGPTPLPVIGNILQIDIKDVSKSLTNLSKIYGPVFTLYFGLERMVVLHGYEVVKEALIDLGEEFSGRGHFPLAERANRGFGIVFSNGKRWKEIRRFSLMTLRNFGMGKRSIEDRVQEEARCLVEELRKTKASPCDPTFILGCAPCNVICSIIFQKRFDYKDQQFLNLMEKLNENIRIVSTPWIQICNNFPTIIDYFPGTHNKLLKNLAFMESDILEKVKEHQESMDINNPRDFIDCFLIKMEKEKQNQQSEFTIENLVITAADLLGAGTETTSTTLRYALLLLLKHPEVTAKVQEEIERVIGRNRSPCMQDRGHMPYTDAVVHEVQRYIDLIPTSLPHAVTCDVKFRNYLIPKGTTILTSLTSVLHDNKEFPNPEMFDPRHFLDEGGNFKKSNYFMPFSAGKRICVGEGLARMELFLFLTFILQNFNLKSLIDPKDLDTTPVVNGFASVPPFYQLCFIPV
T3 sequence (P11712 whole entry): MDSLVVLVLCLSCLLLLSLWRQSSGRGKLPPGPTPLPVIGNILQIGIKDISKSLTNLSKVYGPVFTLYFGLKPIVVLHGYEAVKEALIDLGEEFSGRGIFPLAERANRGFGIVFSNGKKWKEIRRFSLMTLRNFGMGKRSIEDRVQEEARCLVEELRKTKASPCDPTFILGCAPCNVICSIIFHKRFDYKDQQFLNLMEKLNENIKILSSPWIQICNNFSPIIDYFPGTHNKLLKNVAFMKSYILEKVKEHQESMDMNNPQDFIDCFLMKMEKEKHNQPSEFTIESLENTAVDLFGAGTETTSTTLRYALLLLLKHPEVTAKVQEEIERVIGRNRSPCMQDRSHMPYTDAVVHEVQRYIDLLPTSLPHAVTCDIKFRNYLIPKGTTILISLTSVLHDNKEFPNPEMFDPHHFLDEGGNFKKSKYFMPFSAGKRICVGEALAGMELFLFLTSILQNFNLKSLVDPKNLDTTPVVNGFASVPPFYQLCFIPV
T5 sequence (P08684 whole entry): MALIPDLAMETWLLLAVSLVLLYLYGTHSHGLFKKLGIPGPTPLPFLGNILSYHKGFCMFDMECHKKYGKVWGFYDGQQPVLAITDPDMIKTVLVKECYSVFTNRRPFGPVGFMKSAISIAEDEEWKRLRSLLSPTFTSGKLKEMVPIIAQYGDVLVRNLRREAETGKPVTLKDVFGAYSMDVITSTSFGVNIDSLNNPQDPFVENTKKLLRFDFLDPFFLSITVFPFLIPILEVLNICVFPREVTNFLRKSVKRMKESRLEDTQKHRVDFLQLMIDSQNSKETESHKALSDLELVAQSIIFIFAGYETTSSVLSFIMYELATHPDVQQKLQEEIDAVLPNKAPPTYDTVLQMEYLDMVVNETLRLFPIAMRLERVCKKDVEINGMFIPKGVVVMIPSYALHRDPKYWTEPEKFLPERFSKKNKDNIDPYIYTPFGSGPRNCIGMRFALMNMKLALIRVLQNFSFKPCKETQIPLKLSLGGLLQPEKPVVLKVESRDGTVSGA
T4 sequence (P10635 whole entry): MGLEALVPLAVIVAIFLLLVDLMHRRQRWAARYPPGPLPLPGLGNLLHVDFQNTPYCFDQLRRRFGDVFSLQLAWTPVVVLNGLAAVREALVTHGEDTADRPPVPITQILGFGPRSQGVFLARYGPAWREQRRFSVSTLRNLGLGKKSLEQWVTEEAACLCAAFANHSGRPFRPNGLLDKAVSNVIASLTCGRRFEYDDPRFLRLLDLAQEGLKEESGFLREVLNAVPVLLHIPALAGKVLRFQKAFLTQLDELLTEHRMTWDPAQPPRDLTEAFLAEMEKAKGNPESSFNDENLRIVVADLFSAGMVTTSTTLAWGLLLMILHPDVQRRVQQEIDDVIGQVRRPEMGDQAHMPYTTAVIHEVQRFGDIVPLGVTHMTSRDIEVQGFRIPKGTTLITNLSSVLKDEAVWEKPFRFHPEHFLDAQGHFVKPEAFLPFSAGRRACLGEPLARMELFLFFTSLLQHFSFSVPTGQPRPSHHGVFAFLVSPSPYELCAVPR
T6 sequence (P08183 whole entry): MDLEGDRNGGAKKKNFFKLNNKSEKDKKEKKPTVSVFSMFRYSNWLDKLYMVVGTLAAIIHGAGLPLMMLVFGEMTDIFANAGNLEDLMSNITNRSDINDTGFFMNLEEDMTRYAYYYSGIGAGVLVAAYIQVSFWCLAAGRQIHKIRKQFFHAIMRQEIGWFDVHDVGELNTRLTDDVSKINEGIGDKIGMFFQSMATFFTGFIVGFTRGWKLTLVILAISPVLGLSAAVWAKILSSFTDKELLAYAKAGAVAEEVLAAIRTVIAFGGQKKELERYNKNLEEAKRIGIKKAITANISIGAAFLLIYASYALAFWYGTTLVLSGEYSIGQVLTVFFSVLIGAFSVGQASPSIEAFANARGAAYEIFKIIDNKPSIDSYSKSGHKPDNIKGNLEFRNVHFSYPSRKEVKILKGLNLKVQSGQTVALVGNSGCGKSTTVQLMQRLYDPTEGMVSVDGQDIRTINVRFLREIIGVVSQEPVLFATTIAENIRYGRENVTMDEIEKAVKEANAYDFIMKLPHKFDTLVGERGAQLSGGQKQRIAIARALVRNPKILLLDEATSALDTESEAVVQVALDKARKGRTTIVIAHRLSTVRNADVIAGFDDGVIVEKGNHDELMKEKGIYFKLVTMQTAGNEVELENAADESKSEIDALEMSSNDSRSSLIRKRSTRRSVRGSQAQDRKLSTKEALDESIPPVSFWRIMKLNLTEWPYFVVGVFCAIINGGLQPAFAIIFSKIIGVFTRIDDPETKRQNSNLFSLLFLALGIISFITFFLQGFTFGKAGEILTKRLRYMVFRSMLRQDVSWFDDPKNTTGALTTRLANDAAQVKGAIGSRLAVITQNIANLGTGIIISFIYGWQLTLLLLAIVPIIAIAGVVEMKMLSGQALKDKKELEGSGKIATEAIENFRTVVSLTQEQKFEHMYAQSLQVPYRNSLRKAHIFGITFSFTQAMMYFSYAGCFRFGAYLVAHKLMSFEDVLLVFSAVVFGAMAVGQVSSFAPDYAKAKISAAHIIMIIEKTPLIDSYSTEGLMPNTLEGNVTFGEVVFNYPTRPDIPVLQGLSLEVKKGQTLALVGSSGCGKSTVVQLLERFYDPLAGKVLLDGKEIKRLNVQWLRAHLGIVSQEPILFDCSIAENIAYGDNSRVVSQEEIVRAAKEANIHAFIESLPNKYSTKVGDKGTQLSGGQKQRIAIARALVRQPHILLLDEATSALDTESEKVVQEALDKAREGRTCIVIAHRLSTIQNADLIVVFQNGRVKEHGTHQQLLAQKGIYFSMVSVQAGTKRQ

## CC1(C)SC(Nc2ccccc2O)=N[C@@H]1C(=O)O [Compound 1, (R)-2-(2-hydroxyphenylamino)-5,5-dimethyl-4,5-dihydrothiazole-4-carboxylic acid mono-hydrochloride]
[1]; GVS
  hygroscopicity: hygroscopic
[1]; between 0% and 90% RH
  GVS uptake: 6%
[2]
  hyperalgesia: protected from hyperalgesia; also recorded: did not experience hyperalgesia
Uninjured animals
  effect on normal sensation: does not alter normal sensation
[3]; dog, mono-hydrochloride
  stability in hepatocytes: stable; also recorded: showed metabolic stability
[3]; human, mono-hydrochloride
  stability in hepatocytes: stable; also recorded: showed metabolic stability
[3]; monkey
  stability in hepatocytes: showed metabolic stability
[3]; rat, mono-hydrochloride
  stability in hepatocytes: stable; also recorded: showed metabolic stability
CYP1A2; CYP1A2, up to 100 μM
  CYP inhibition: did not inhibit
CYP1A2; CYP1A2, read-out: IC50
  IC50: > 100 µM
CYP1A2; human liver microsomes, known substrate of the CYP isoform, read-out: IC50 (μM) CYP 1A2
  IC50: > 100 µM
CYP2C19; CYP2C19, up to 100 μM
  CYP inhibition: did not inhibit
CYP2C19; CYP2C19, read-out: IC50
  IC50: > 100 µM
CYP2C19; human liver microsomes, known substrate of the CYP isoform, read-out: IC50 (μM) CYP 2C19
  IC50: > 100 µM
CYP2C9; CYP2C9, up to 100 μM
  CYP inhibition: did not inhibit
CYP2C9; CYP2C9, read-out: IC50
  IC50: > 100 µM
CYP2C9; human liver microsomes, known substrate of the CYP isoform, read-out: IC50 (μM) CYP 2C9
  IC50: > 100 µM
CYP2D6; CYP2D6, up to 100 μM
  CYP inhibition: did not inhibit
CYP2D6; CYP2D6, read-out: IC50
  IC50: > 100 µM
CYP2D6; human liver microsomes, known substrate of the CYP isoform, read-out: IC50 (μM) CYP 2D6
  IC50: > 100 µM
CYP3A4; CYP3A4, up to 100 μM
  CYP inhibition: did not inhibit
CYP3A4; CYP3A4, read-out: IC50
  IC50: > 100 µM
CYP3A4; human liver microsomes, known substrate of the CYP isoform, read-out: IC50 (μM) CYP 3A4
  IC50: > 100 µM
P-gp; Caco-2 cells, probe substrate digoxin (10 μM), bidirectional transport, 1-600 μM tested
  IC50: > 600 µM
P-gp; P-gp
  transporter inhibition: does not inhibit
In vivo; female, Sprague Dawley (CD IGS, Crl:CD(SD)), Compound 1 Concentration in rat plasma, Female, 100 mg/kg single PO, Average
  concentration at 1 h: 60100 ng/mL
In vivo; female, Sprague Dawley (CD IGS, Crl:CD(SD)), Compound 1 Concentration in rat plasma, Female, 100 mg/kg single PO, individual animals
  concentration at 2 h: 58200 ng/mL
In vivo; female, Sprague Dawley (CD IGS, Crl:CD(SD)), Compound 1 Concentration in rat plasma, Female, 100 mg/kg single PO, 4 h post-dose, Average
  concentration at 4 h: 22600 ng/mL
In vivo; [4]
  concentration at 0.5 h: 34300 ng/mL
  concentration at 1 h: 53900 ng/mL
In vivo; [5]
  Cmax: 60000 ng/mL
  half-life: 4 h
In vivo; [6]
  concentration at 0.5 h: 13800 ng/mL
  concentration at 2 h: 16300 ng/mL
In vivo; [7]
  concentration at 1 h: 14900 ng/mL
  concentration at 2 h: 14300 ng/mL
In vivo; male, Sprague Dawley, Compound 1 Concentration in rat plasma, 100 mg/kg single PO, 8 h post-dose, individual animals
  concentration at 8 h: 1610 ng/mL
In vivo; [8]
  Cmax: 15000 ng/mL
  Tmax: 1 h
  half-life: 7 h

Source: patent publication US20200246316A1, “METHODS OF TREATING POST-SURGICAL PAIN WITH A THIAZOLINE ANTI-HYPERALGESIC AGENT” (CERSCI THERAPEUTICS, INC., priority 2019, published 2020)
